For 36 compounds, EC50 results are on record in patent US12662469B2 (SIRONAX LTD, priority 2018, dated 2026).

Molecules are shown by their SMILES.

One assay deals with Cell Necrosis. Put plainly: Cell necrosis assay / cell viability assay (necrosis inhibitor activity).
Settings: not given
The class given is cell-based.
For `CN(C)CCC1Oc2cc(F)c(OC3CN(C(=O)N4N=CC[C@H]4c4cc(F)cc(F)c4)C3)cc2NC1=O` (stereo partly drawn) [Compound 249, 6-((1-((S)-5-(3,5-difluorophenyl)-4,5-dihydro-1H-pyrazole-1-carbonyl)azetidin-3-yl)oxy)-2-(2-(dimethylamino)ethyl)-7-fluoro-2H-benzo[b][1,4]oxazin-3(4H)-one], the EC50 – broadly, the concentration that produces a half-maximal response – is 0.001 to 1 µM.

Still in this assay, the particulars now being: necrosis inhibitor activity; EC data for 14-191 extrapolated; read-out: EC50.
In the case of `COc1cccc(C=C2CN(C(=O)N3N=CCC3c3ccccc3)C2)c1` (stereo not drawn) [Compound 43, (3-(3-methoxybenzylidene)azetidin-1-yl)(5-phenyl-4,5-dihydro-1H-pyrazol-1-yl)methanone], the concentration for a half-maximal effect (EC50) was 0.001 to 1 µM. For the compound `O=C(N[C@H]1CC[C@H](Oc2ccccc2)C1)N1N=CCC1c1ccccc1` (stereo partly drawn) [Compound 25, N-((1S,3S)-3-phenoxycyclopentyl)-5-phenyl-4,5-dihydro-1H-pyrazole-1-carboxamide], the concentration giving a half-maximal response (EC50) is 1 to 10 µM. With `N#Cc1cnc(N2CCN(C(=O)N3N=CCC3c3ccccc3)CC2)s1` (stereo not drawn) [Compound 108, 2-(4-(5-phenyl-4,5-dihydro-H-pyrazole-1-carbonyl)piperazin-1-yl)thiazole-5-carbonitrile], the 50% effective concentration (EC50) is 0.001 to 1 µM.

As for `O=C1NCc2cc(OC3CN(C(=O)N4N=CCC4c4cc(F)cc(F)c4)C3)ccc21` (stereo not drawn) [Compound 180], the 50% effective concentration (EC50) is 0.001 to 1 µM. On to `O=C(NC1CCN(c2ccccc2)C1)N1N=CCC1c1ccccc1` (stereo not drawn) [Compound 24, 5-phenyl-N-(1-phenylpyrrolidin-3-yl)-4,5-dihydro-1H-pyrazole-1-carboxamide], for which the concentration giving a half-maximal response (EC50) was 0.001 to 1 µM.

On to `O=C(N1CC(Oc2ccc3cn[nH]c3c2)C1)N1N=CCC1c1cc(F)cc(F)c1` (stereo not drawn) [Compound 182], for which the half-maximal effective concentration (EC50) was 0.001 to 1 µM. In the case of `O=C(N1CC[C@@H](Oc2ccccc2F)C1)N1N=CCC1c1ccccc1` (stereo partly drawn) [Compound 31, ((R)-3-(2-fluorophenoxy)pyrrolidin-1-yl)(5-phenyl-4,5-dihydro-1H-pyrazol-1-yl)methanone], the 50% effective concentration (EC50) is 0.001 to 1 µM. For the compound `O=C(N1CC(=Cc2ccc3cc[nH]c3c2)C1)N1N=CCC1c1cc(F)cc(F)c1` (stereo not drawn) [Compound 184], the EC50 was 0.001 to 1 µM. Take `O=C(N1CCN(c2ncc(F)cn2)CC1)N1OCC[C@H]1c1ccccc1` [Compound 81, (S)-(4-(5-fluoropyrimidin-2-yl)piperazin-1-yl)(3-phenylisoxazolidin-2-yl)methanone]: the EC50 is 0.001 to 1 µM.

`O=C(N1CC(Oc2ccc(F)cc2)C1)N1N=CCC1c1ccccc1` (stereo not drawn) [Compound 62, (3-(4-fluorophenoxy)azetidin-1-yl)(5-phenyl-4,5-dihydro-1H-pyrazol-1-yl)methanone]: the EC50 is 0.001 to 1 µM. In the case of `Cc1cnc(N2CCN(C(=O)N3N=CCC3c3ccccc3)CC2)nc1` (stereo not drawn) [Compound 87, (4-(5-methylpyrimidin-2-yl)piperazin-1-yl)(5-phenyl-4,5-dihydro-1H-pyrazol-1-yl)methanone], the concentration giving a half-maximal response (EC50) is 0.001 to 1 µM.

`O=C(N1CC(C(F)(F)c2ccc(F)cc2F)C1)N1N=CCC1c1cc(F)cc(F)c1` (stereo not drawn) [Compound 135, (5-(3,5-difluorophenyl)-4,5-dihydro-1H-pyrazol-1-yl)(3-((2,4-difluorophenyl)difluoromethyl)azetidin-1-yl)methanone]: the EC50 was 0.001 to 1 µM. Turning to `O=C(N1CC(Oc2ccc(F)nc2)C1)N1N=CCC1c1cc(F)cc(F)c1` (stereo not drawn) [Compound 141, (5-(3,5-difluorophenyl)-4,5-dihydro-1H-pyrazol-1-yl)(3-((6-fluoropyridin-3-yl)oxy)azetidin-1-yl)methanone], the 50% effective concentration (EC50) is 0.001 to 1 µM. With `C[C@H]1CN(c2ncccn2)CCN1C(=O)N1N=CCC1c1ccccc1` (stereo in doubt) [Compound 112B, (S)-(2-methyl-4-(pyrimidin-2-yl)piperazin-1-yl)(5-phenyl-4,5-dihydro-1H-pyrazol-1-yl)methanone], the EC50 was 1 to 10 µM. With `N#Cc1cnc(OC2CN(C(=O)N3N=CCC3c3ccccc3)C2)s1` (stereo not drawn) [Compound 120, 2-((1-(5-phenyl-4,5-dihydro-1H-pyrazole-1-carbonyl)azetidin-3-yl)oxy)thiazole-5-carbonitrile], the concentration giving a half-maximal response (EC50) is 1 to 10 µM. The same measure, in the same setting: in the case of `O=C(N1CC(Oc2ccc(Cl)cc2)C1)N1N=CCC1c1ccccc1` (stereo not drawn) [Compound 65, (3-(4-chlorophenoxy)azetidin-1-yl)(5-phenyl-4,5-dihydro-1H-pyrazol-1-yl)methanone] it was 0.001 to 1 µM. As for `O=C(NC1CCC(c2ccccc2)C1)N1N=CCC1c1ccccc1` (stereo not drawn) [Compound 21, 5-phenyl-N-(3-phenylcyclopentyl)-4,5-dihydro-1H-pyrazole-1-carboxamide], the concentration giving a half-maximal response (EC50) was 0.001 to 1 µM.

The assay is the same for the next values; noted with them: necrosis inhibitor activity; compounds outside 14-191; read-out: EC50.
Consider `O=C(N1CC(=Cc2ccc(Cl)cc2Cl)C1)N1N=CC[C@H]1c1cc(F)cc(F)c1` [Compound 314, (S)-(3-(2,4-dichlorobenzylidene)azetidin-1-yl)(5-(3,5-difluorophenyl)-4,5-dihydro-1H-pyrazol-1-yl)methanone], for which the EC50 lay within 0.001 to 1 µM.

Turning to `COC(=O)c1cc2sc(OC3CN(C(=O)N4N=CC[C@H]4c4cc(F)cc(F)c4)C3)nc2[nH]1` [Compound 257, methyl (S)-2-((1-(5-(3,5-difluorophenyl)-4,5-dihydro-1H-pyrazole-1-carbonyl)azetidin-3-yl)oxy)-4H-pyrrolo[2,3-d]thiazole-5-carboxylate], the EC50 lay in the range of 0.001 to 1 µM. Take `N#Cc1ccc(O[C@@H]2CCN(C(=O)N3N=CC[C@H]3c3cc(F)cc(F)c3)C2)c(Cl)n1` [Compound 365, 6-chloro-5-(((R)-1-((S)-5-(3,5-difluorophenyl)-4,5-dihydro-1H-pyrazole-1-carbonyl)pyrrolidin-3-yl)oxy)picolinonitrile]: the EC50 was in the range of 0.001 to 1 µM. Regarding `N#Cc1nc(O[C@@H]2CCN(C(=O)N3N=CC[C@H]3c3cc(F)cc(F)c3)C2)ccc1Cl` [Compound 339, 3-chloro-6-(((R)-1-((S)-5-(3,5-difluorophenyl)-4,5-dihydro-1H-pyrazole-1-carbonyl)pyrrolidin-3-yl)oxy)picolinonitrile], the concentration for a half-maximal effect (EC50) fell in the range of 0.001 to 1 µM. With `NC(=O)c1ccc(F)cc1C=C1CN(C(=O)N2N=CC[C@H]2c2cc(F)cc(F)c2)C1` [Compound 320, (S)-2-((1-(5-(3,5-difluorophenyl)-4,5-dihydro-1H-pyrazole-1-carbonyl)azetidin-3-ylidene)methyl)-4-fluorobenzamide], the EC50 is 0.001 to 1 µM.

`CC1Oc2ccc(OC3CN(C(=O)N4N=CC[C@H]4c4cc(F)cc(C#N)c4)C3)cc2NC1=O` (stereo partly drawn) [Compound 354, 3-fluoro-5-((5S)-1-(3-((2-methyl-3-oxo-3,4-dihydro-2H-benzo[b][1,4]oxazin-6-yl)oxy)azetidine-1-carbonyl)-4,5-dihydro-1H-pyrazol-5-yl)benzonitrile]: the half-maximal effective concentration (EC50) was 0.001 to 1 µM.

Turning to `O=C1CCc2cc(F)c(OC3CN(C(=O)N4N=CC[C@H]4c4cc(F)cc(F)c4)C3)cc2N1` [Compound 202, (S)-7-((1-(5-(3,5-difluorophenyl)-4,5-dihydro-1H-pyrazole-1-carbonyl)azetidin-3-yl)oxy)-6-fluoro-3,4-dihydroquinolin-2(1H)-one], the EC50 fell in the range of 0.001 to 1 µM.

For `CN1C(=O)C(CCO)Oc2cc(F)c(OC3CN(C(=O)N4N=CC[C@H]4c4cc(F)cc(F)c4)C3)cc21` (stereo partly drawn) [Compound 248, 6-((1-((S)-5-(3,5-difluorophenyl)-4,5-dihydro-1H-pyrazole-1-carbonyl)azetidin-3-yl)oxy)-7-fluoro-2-(2-hydroxyethyl)-4-methyl-2H-benzo[b][1,4]oxazin-3(4H)-one], the EC50 lay within 0.001 to 1 µM. For `CNc1ncc(F)c(OC2CN(C(=O)N3N=CC[C@H]3c3cc(F)cc(F)c3)C2)n1` [Compound 268, (S)-(5-(3,5-difluorophenyl)-4,5-dihydro-1H-pyrazol-1-yl)(3-((5-fluoro-2-(methylamino)pyrimidin-4-yl)oxy)azetidin-1-yl)methanone], the EC50 is 0.001 to 1 µM. The same measure, in the same setting: the value for `CC(C)C(=O)Nc1nc(N2CCN(C(=O)N3N=CC[C@H]3c3cc(F)cc(F)c3)CC2)ncc1F` [Compound 292, (S)—N-(2-(4-(5-(3,5-difluorophenyl)-4,5-dihydro-1H-pyrazole-1-carbonyl)piperazin-1-yl)-5-fluoropyrimidin-4-yl)isobutyramide] was 0.001 to 1 µM. Regarding `N#Cc1cnc(N2CCN(C(=O)N3N=CC[C@H]3c3cc(F)cc(F)c3)CC2)nc1` [Compound 385, (S)-2-(4-(5-(3,5-difluorophenyl)-4,5-dihydro-1H-pyrazole-1-carbonyl)piperazin-1-yl)pyrimidine-5-carbonitrile], the EC50 lay within 0.001 to 1 µM. With `N#Cc1cc(OC2CN(C(=O)N3N=CC[C@H]3c3cc(F)cc(F)c3)C2)ccc1F` [Compound 236, (S)-5-((1-(5-(3,5-difluorophenyl)-4,5-dihydro-1H-pyrazole-1-carbonyl)azetidin-3-yl)oxy)-2-fluorobenzonitrile], the EC50 fell in the range of 0.001 to 1 µM. Turning to `CNc1nc(N2CCN(C(=O)N3N=CC[C@H]3c3cc(F)cc(F)c3)CC2)ncc1F` [Compound 303, (S)-(5-(3,5-difluorophenyl)-4,5-dihydro-1H-pyrazol-1-yl)(4-(5-fluoro-4-(methylamino)pyrimidin-2-yl)piperazin-1-yl)methanone], the concentration giving a half-maximal response (EC50) fell in the range of 0.001 to 1 µM.

Consider `O=C(N1CC(=Cc2ccc3oc(=O)[nH]c3c2)C1)N1N=CC[C@H]1c1cc(F)cc(F)c1` [Compound 311, (S)-5-((1(5-(3,5-difluorophenyl)-4,5-dihydro-1H-pyrazole-1-carbonyl)azetidin-3-ylidene)methyl)benzo[d]oxazol-2(3H)-one], for which the concentration giving a half-maximal response (EC50) was 0.001 to 1 µM. Same read-out and setting: in the case of `O=C(O)c1cc2sc(OC3CN(C(=O)N4N=CC[C@H]4c4cc(F)cc(F)c4)C3)nc2[nH]1` [Compound 259, (S)-2-((1(5-(3,5-difluorophenyl)-4,5-dihydro-1H-pyrazole-1-carbonyl)azetidin-3-yl)oxy)-4H-pyrrolo[2,3-d]thiazole-5-carboxylic acid] it was 0.001 to 1 µM. Take `CC1CN(C(=O)N2N=CCC2c2ccccc2)C1` (stereo not drawn) [Compound 4, (3-methylazetidin-1-yl)(5-phenyl-4,5-dihydro-1H-pyrazol-1-yl)methanone]: the EC50 fell in the range of 0.001 to 1 µM. As to `Nc1ccc(F)c(C=C2CN(C(=O)N3N=CC[C@H]3c3cc(F)cc(F)c3)C2)n1` [Compound 244], the 50% effective concentration (EC50) was in the range of 0.001 to 1 µM. Turning to `O=C(N1CC(Oc2ccc(OCc3ccccc3)cc2)C1)N1N=CC[C@H]1c1cc(F)cc(F)c1` [Compound 214, (S)-(3-(4-(benzyloxy)phenoxy)zetidine-1-yl)(5-(3,5-difluorophenyl)-4,5-dihydro-1H-pyrazol-1-yl)methanone], the EC50 is 0.001 to 1 µM.
